Measurements from US8980934B2, “Kinase inhibitors and method of treating cancer with same” (University Health Network, priority 2012, dated 2015).

Key:
Type in all cases: cell-based
[1] = system: HCT116 colon cancer cells; experiment: Cancer cell growth inhibition, Sulforhodamine B assay; conditions: Homo sapiens, HCT-116, 120 h; HCT116, 5 days culture, SRB; read-out: Cancer Cell Line GI50 Range HCT116
Procedure: (§1) Breast cancer cells (MDA-MB-231), colon cancer cells (HCT116) and ovarian cancer cells (PA-1) were seeded (1000 to 4000 in 80 μl per well depending on the cell growth rate) into 96 well plates 24 hours before compound overlay. Compounds were prepared as 10 mM stock solutions in 100% DMSO which were diluted with DMEM (Dulbecco's Modified Eagle's Medium) cell growth Medium (Invitrogen, Burlington, ON, Canada) containing 10% FBS (Fetal Bovine Serum) to concentrations ranging from 50 nM to 250 μM. Aliquots (20 μl) from each concentration were overlaid to 80 μl of the pre-seeded cells in the 96 well plates to make final concentrations of 10 nM to 50 μM. The cells were cultured for 5 days before the Sulforhodamine B assay (SRB) was performed to determine the compound's cell growth inhibition activity.
(§2) Sulforhodamine B (purchased from Sigma, Oakville, ON, Canada) is a water-soluble dye that binds to the basic amino acids of the cellular proteins. Thus, colorimetric measurement of the bound dye provides an estimate of the total protein mass that is related to the cell number. the cells are fixed in situ by gently aspirating off the culture media and adding 50 μl ice cold 10% Trichloroacetic Acid (TCA) per well and incubate at 4° C. for 30-60 min. The plates are washed with H2O five times and allowed to air dry for 5 min. Addition of 50 μl 0.4% (w/v) SRB solution in 1% (v/v) acetic acid to each well and incubatation for 30 min at RT completes the staining reaction. Following staining, plates are washed four times with 1% acetic acid to remove unbound dye and then allowed to air dry for 5 min. The stain is solubilized with 100 μl of 10 mM Tris pH 10.5 per well. Absorbance is read at 570 nm.
(§3) The percentage (%) of relative growth inhibition was calculated by comparing to DMSO treated only cells (100%). GI50's were determined for compounds with cytotoxic activity. The GI50 was calculated using GraphPad PRISM software (GraphPad Software, Inc., San Diego, Calif., USA). GI50 (growth inhibition) is the compound concentration that causes 50% inhibition of cell growth.
(§4) In Table 1 below, GI50 value ranges for several compound examples against breast cancer cell lines (MDA-MB-231), colon cancer cell lines (HCT116) and ovarian cancer cell lines (PA-1) are given. […] The GI50 ranges are indicated as “A,” “B,” and “C,” for values less than or equal to 0.1 μM; those greater than 0.1 μM and less than or equal to 0.5 μM; and those greater than 0.5 μM, respectively.

[2] = system: PA-1 ovarian cancer cells; experiment: as above; conditions: 120 h; PA-1, 5 days culture, SRB; read-out: Cancer Cell Line GI50 Range PA-1
Procedure: as §1, §2, §3, §4

[3] = system: MDA-MB-231 breast cancer cells; experiment: as above; conditions: Homo sapiens, 120 h; MDA-MB-231, 5 days culture, SRB; read-out: Cancer Cell Line GI50 Range MDA-MB-231
Procedure: as §1, §2, §3, §4

[4] = system: ovarian 2393A tumor initiating cells; experiment: Ovarian tumor-initiating cell growth inhibition, Alamar Blue assay; conditions: 144 h, ovarian TICs, 6 days culture, read-out: Tumor Initiating Cell Line GI50 Range ovarian 2393A
Text: (§5) Non-tissue or tissure cultured treated T-75 flask and 96-well plates were purchased from VWR. Vitamin B-27 supplement, MEM NEAA (minimum essential medium non essential amino acids), sodium pyruvate, L-glutamine, N2 supplement, penicillin-streptomycin and fungizone/amphotericin B were obtained from Invitrogen. Lipid mixture, heparin and EGF were purchased from Sigma; bFGF from BD Biosciences. Colon tumor initiating cells (TICs) were routinely maintained using non-tissue cultured treated T-75 flasks in DMEM:F12 medium containing 0.2XB-27 supplement, 4 ug/ml heparin, 1XMEM NEAA, 1Xsodium pyruvate, 1 mM glutamine, 10 pg/ul bFGF, 20 pg/ul EGF, 1×N2 supplement, lipid mixture, penicillin-streptomycin and fungizone/amphotericin B. Ovarian TICs were routinely maintained using tissue cultured treated T-75 flasks in DMEM:F12 medium containing 1XB-27 supplement, 4 ug/ml heparin, 20 pg/ul bFGF, 20 pg/ul EGF and penicillin-streptomycin.
(§6) Compounds described herein were dissolved in DMSO and further diluted in cell culture medium for GI50 determination. Colon TICs were trypsinized and seeded into non-tissue cultured treated 96-well plates with 4,000 cells/well. After 24 h, compound was added into the cell culture at different concentrations, and the final concentration of DMSO was adjusted to 0.1%. Cells were then cultured at 37° C. for 9 days. Ovarian TICs were trypsinized and seeded into tissue cultured treated 96-well plates with 1,000 cells/well. After 24 h, compound was added into the cell culture at different concentrations, and the final concentration of DMSO was adjusted to 0.1%. Cells were then cultured at 37° C. for 6 days. Cell viability was assessed by Alamar Blue assay: 10 ul of Alamar Blue was added into each well. After 4 hours incubation at 37° C., fluorescence was recorded at excitation 544 and emission 590. GI50 (Growth inhibition) was calculated using GraphPad Prism 4.0 software. Cell growth inhibition data for compounds described herein is tabulated below (Table 2). The GI50 ranges are indicated as “A,” and “B”, for values less than or equal to 0.1 μM: those greater than 0.1 μM and less than or equal to 0.5 μM, respectively.

[5] = system: colon 12 tumor initiating cells; experiment: Colon tumor-initiating cell growth inhibition, Alamar Blue assay; conditions: 216 h, colon TICs, 9 days culture, read-out: Tumor Initiating Cell Line GI50 Range colon 12
Text: as §5, §6

| GI50 [1] [µM] | GI50 [2] [µM] | GI50 [3] [µM] | GI50 [4] [µM] | GI50 [5] [µM] | SMILES |
| --- | --- | --- | --- | --- | --- |
| ≤ 0.1 | ≤ 0.1 | ≤ 0.1 | ≤ 0.1 | ≤ 0.1 | O=C(N[C@@H](c1ccccn1)C1CCCC1)c1ccc2[nH]nc(-c3ccc(N4CC5(COC5)C4)cc3)c2c1 [Example A8, (R)-3-(4-(2-Oxa-6-azaspiro[3.3]heptan-6-yl)phenyl)-N-(cyclopentyl(pyridin-2-yl)methyl)-1H-indazole-5-carboxamide] |
| ≤ 0.1 | ≤ 0.1 | ≤ 0.1 | 0.1 to 0.5 | ≤ 0.1 | O=C(N[C@H](c1ccccn1)C1CC1)c1ccc2[nH]nc(-c3ccc(N4CC5(CCOCC5)C4)cc3)c2c1 [Example A18, (S)-3-(4-(7-Oxa-2-azaspiro[3.5]nonan-2-yl)phenyl)-N-(cyclopropyl(pyridin-2-yl)methyl)-1H-indazole-5-carboxamide] |
| ≤ 0.1 | ≤ 0.1 | ≤ 0.1 | ≤ 0.1 | 0.1 to 0.5 | O=C(N[C@H](c1ccccn1)C1CC1)c1ccc2[nH]nc(-c3ccc(N4CC5(COC5)C4)cc3)c2c1 [Example A5, (S)-3-(4-(2-Oxa-6-azaspiro[3.3]heptan-6-yl)phenyl)-N-(cyclopropyl(pyridin-2-yl)methyl)-1H-indazole-5-carboxamide] |
